Data: patent publication US20150315188A1, “COMPOUNDS AND METHODS FOR TREATMENT OF HYPERTENSION” (MEDIVATION TECHNOLOGIES, INC., priority 2012, published 2015)

Tests used:
Design in all cases: purchased Milipore (Millipore)
[1] = target: T1, Human adrenergic α2B receptor (Homo sapiens, UniProt P18089); assay: Radioligand binding, adrenergic α2B (Protocol Group B); settings: for inhibition at 0.01 µM: read-out: Percentage inhibition of ligand binding, Adrenergic α2B (10 nM); for inhibition at 0.03 µM: read-out: Percentage inhibition of ligand binding, Adrenergic α2B (30 nM); for inhibition at 0.1 µM: read-out: Percentage inhibition of ligand binding, Adrenergic α2B (0.1 μM); for Ki: estimated Ki, read-out: Ki α2B
T1 sequence (P18089 1-450): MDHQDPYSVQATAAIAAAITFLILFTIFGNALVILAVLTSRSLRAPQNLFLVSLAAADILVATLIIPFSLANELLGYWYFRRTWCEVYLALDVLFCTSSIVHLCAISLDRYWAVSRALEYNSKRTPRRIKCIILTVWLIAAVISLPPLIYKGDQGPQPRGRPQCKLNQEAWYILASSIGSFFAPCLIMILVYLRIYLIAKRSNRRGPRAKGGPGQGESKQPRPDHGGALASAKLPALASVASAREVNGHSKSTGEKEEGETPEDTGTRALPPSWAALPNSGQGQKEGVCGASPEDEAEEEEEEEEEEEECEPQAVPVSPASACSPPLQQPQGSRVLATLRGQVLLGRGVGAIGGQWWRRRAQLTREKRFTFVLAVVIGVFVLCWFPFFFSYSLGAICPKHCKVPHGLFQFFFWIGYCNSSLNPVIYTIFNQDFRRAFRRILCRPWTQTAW
Method in brief: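 Compounds at various concentrations in 1% DMSO were tested on recombinant membranes in Tris-HCl pH 7.4 buffer containing MgCl2, CaCl2 and 0.2% BSA.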

[2] = target: T2, Human adrenergic α2A receptor (Homo sapiens, UniProt P08913); assay: Radioligand binding, adrenergic α2A (Protocol Group B); settings: for Percentage inhibition of ligand binding, Adrenergic α2A (0.1 μM) / inhibition at 0.1 µM: 0.1 μM compound; for Percentage inhibition of ligand binding, Adrenergic α2A (0.1 μM) / Percentage inhibition of ligand binding, Adrenergic α2A (0.3 μM) / Ki / inhibition at 0.1 µM / inhibition at 0.3 µM: Protocol Group B; for Percentage inhibition of ligand binding, Adrenergic α2A (0.3 μM) / inhibition at 0.3 µM: 0.3 μM compound; for Ki: estimated Ki; for inhibition at 0.1 µM: read-out: Percentage inhibition of ligand binding, Adrenergic α2A (0.1 μM); for inhibition at 0.3 µM: read-out: Percentage inhibition of ligand binding, Adrenergic α2A (0.3 μM)
T2 sequence (P08913 1-465): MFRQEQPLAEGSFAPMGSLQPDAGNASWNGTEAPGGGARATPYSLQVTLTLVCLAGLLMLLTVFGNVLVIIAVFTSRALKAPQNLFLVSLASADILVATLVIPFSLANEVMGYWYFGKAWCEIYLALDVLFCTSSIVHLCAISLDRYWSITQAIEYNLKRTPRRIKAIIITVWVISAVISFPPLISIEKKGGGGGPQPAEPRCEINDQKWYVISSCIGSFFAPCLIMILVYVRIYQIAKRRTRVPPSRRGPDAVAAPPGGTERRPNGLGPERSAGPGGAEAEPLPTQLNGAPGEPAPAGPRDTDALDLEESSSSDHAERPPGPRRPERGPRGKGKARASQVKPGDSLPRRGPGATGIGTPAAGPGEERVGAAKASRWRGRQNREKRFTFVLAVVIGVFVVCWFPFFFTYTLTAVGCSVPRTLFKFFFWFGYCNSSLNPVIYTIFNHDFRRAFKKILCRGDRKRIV
Method in brief: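 Compounds (1% DMSO vehicle, various concentrations) competed against 2 nM [^3H]MK-912 on recombinant receptor membranes for 60 min at 25° C, Tris-HCl pH 7.4 buffer with Mg2+, Ca2+, BSA. Bound radioligand filtered and counted; 10 μM rauwolscine set nonspecific binding. Values: percent inhibition of specific binding or estimated Ki.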

[3] = target: T3, Human adrenergic α1B receptor (Homo sapiens, UniProt P35368); assay: Radioligand binding, adrenergic α1B (Protocol Group B); settings: for Percentage inhibition of ligand binding, Adrenergic α1B (0.1 μM) / inhibition at 0.1 µM: 0.1 μM compound; for Percentage inhibition of ligand binding, Adrenergic α1B (0.1 μM) / Percentage inhibition of ligand binding, Adrenergic α1B (0.3 μM) / Ki / inhibition at 0.1 µM / inhibition at 0.3 µM: Protocol Group B; for Percentage inhibition of ligand binding, Adrenergic α1B (0.3 μM) / inhibition at 0.3 µM: 0.3 μM compound; for Ki: estimated Ki; for inhibition at 0.1 µM: read-out: Percentage inhibition of ligand binding, Adrenergic α1B (0.1 μM); for inhibition at 0.3 µM: read-out: Percentage inhibition of ligand binding, Adrenergic α1B (0.3 μM)
T3 sequence (P35368 1-520): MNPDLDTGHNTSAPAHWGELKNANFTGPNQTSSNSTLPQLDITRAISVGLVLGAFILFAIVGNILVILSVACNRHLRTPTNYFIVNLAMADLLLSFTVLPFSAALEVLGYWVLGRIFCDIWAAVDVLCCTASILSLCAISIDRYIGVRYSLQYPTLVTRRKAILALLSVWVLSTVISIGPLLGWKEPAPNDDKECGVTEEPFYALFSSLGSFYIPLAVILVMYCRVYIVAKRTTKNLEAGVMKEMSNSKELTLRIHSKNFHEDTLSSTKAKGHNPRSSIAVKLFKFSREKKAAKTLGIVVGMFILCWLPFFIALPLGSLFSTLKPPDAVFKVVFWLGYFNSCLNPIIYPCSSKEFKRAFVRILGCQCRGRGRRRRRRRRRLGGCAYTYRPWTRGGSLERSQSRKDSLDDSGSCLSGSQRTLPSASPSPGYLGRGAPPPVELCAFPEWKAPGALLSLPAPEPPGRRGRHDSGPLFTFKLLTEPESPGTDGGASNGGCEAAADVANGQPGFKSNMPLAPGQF
Method in brief: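 Values are percent inhibition of specific [3H]prazosin (0.3 nM) binding or estimated Ki, from filtration counting. Human α1B recombinant membranes, Tris-HCl pH 7.4 buffer with MgCl2 and EDTA, 60 min at 25 °C, 1% DMSO vehicle; 10 μM prazosin defined nonspecific binding.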

[4] = 10 nM compound, Protocol Group B
[5] = 30 nM compound, Protocol Group B
[6] = 0.1 μM compound, Protocol Group B

Row | SMILES | inhibition at 0.01 µM [1, 4] | inhibition at 0.03 µM [1, 5] | inhibition at 0.1 µM [1, 6] | Ki ([1]; Protocol Group B) | Percentage inhibition of ligand binding, Adrenergic α2A (0.1 μM) [2] | Percentage inhibition of ligand binding, Adrenergic α2A (0.3 μM) [2] | Ki [2] | Percentage inhibition of ligand binding, Adrenergic α1B (0.1 μM) [3] | Percentage inhibition of ligand binding, Adrenergic α1B (0.3 μM) [3] | Ki [3] | inhibition at 0.1 µM [2] | inhibition at 0.3 µM [2] | inhibition at 0.1 µM [3] | inhibition at 0.3 µM [3] | also measured
1 | Cc1ccc2c(c1)c1c(n2CC(OC2CCCC2)c2ccncc2)CCN(C)C1 (single isomer, unassigned) [35a] | 63% | 86% | 96% | 2.9 nM | 67% | 86% | 28.5 nM | 40% | 71% | 60 nM |  |  |  |  | 
2 | Cc1ccc2c(c1)c1c(n2CC(O)c2ccncc2)CC[N+]2([O-])CCCC12 (centres unmarked) [compound 23, 7-(2-hydroxy-2-(pyridin-4-yl)ethyl)-10-methyl-1,2,3,4,5,6,7,11c-octahydroindolizino[7,8-b]indole 4-oxide] | 65% | 88% | 92% | 2.24 nM |  |  | 20.8 nM |  |  | 56.4 nM | 55% | 64% | 53% | 65% | inhibition at 0.0001 µM ([1]; 0.1 nM compound, concentration series, read-out: Percentage inhibition of ligand binding, Adrenergic α2B, 0.1 nM): 13%; inhibition at 0.00032 µM ([1]; 0.32 nM compound, concentration series, read-out: Percentage inhibition of ligand binding, Adrenergic α2B, 0.32 nM): 5%; inhibition at 0.001 µM ([1]; 1 nM compound, concentration series, read-out: Percentage inhibition of ligand binding, Adrenergic α2B, 1 nM): 2%; inhibition at 0.0032 µM ([1]; 3.2 nM compound, concentration series, read-out: Percentage inhibition of ligand binding, Adrenergic α2B, 3.2 nM): 40%; inhibition at 0.32 µM ([1]; 0.32 μM compound, concentration series, read-out: Percentage inhibition of ligand binding, Adrenergic α2B, 0.32 μM): 105%; inhibition at 0.0032 µM ([2]; 3.2 nM compound, concentration series, read-out: Percentage inhibition of ligand binding, Adrenergic α2A, 3.2 nM): 14%; inhibition at 0.01 µM ([2]; 10 nM compound, concentration series, read-out: Percentage inhibition of ligand binding, Adrenergic α2A, 10 nM): 21%; inhibition at 0.03 µM ([2]; 0.03 μM compound, concentration series, read-out: Percentage inhibition of ligand binding, Adrenergic α2A, 0.03 μM): 37%; inhibition at 0.32 µM ([2]; 0.32 μM compound, concentration series, read-out: Percentage inhibition of ligand binding, Adrenergic α2A, 0.32 μM): 67%; inhibition at 1 µM ([2]; 1 μM compound, concentration series, read-out: Percentage inhibition of ligand binding, Adrenergic α2A, 1 μM): 76%; inhibition at 3.2 µM ([2]; 3.2 μM compound, concentration series, read-out: Percentage inhibition of ligand binding, Adrenergic α2A, 3.2 μM): 88%; inhibition at 10 µM ([2]; 10 μM compound, concentration series, read-out: Percentage inhibition of ligand binding, Adrenergic α2A, 10 μM): 92%; inhibition at 0.0032 µM ([3]; 3.2 nM compound, concentration series, read-out: Percentage inhibition of ligand binding, Adrenergic α1B, 3.2 nM): 21%; inhibition at 0.01 µM ([3]; 10 nM compound, concentration series, read-out: Percentage inhibition of ligand binding, Adrenergic α1B, 10 nM): 22%; inhibition at 0.03 µM ([3]; 0.03 μM compound, concentration series, read-out: Percentage inhibition of ligand binding, Adrenergic α1B, 0.03 μM): 32%; inhibition at 0.32 µM ([3]; 0.32 μM compound, concentration series, read-out: Percentage inhibition of ligand binding, Adrenergic α1B, 0.32 μM): 64%; inhibition at 1 µM ([3]; 1 μM compound, concentration series, read-out: Percentage inhibition of ligand binding, Adrenergic α1B, 1 μM): 72%; inhibition at 3.2 µM ([3]; 3.2 μM compound, concentration series, read-out: Percentage inhibition of ligand binding, Adrenergic α1B, 3.2 μM): 85%; inhibition at 10 µM ([3]; 10 μM compound, concentration series, read-out: Percentage inhibition of ligand binding, Adrenergic α1B, 10 μM): 93%

Now those with a lower Ki ([1]; Protocol Group B), led by results:

Row | inhibition at 0.01 µM [1, 4] | inhibition at 0.03 µM [1, 5] | inhibition at 0.1 µM [1, 6] | Ki ([1]; Protocol Group B) | Percentage inhibition of ligand binding, Adrenergic α2A (0.1 μM) [2] | Percentage inhibition of ligand binding, Adrenergic α2A (0.3 μM) [2] | Ki [2] | Percentage inhibition of ligand binding, Adrenergic α1B (0.1 μM) [3] | Percentage inhibition of ligand binding, Adrenergic α1B (0.3 μM) [3] | Ki [3] | inhibition at 0.1 µM [2] | inhibition at 0.3 µM [2] | inhibition at 0.1 µM [3] | inhibition at 0.3 µM [3] | SMILES | also measured
3 | 93% | 95% |  | 0.7 nM |  |  | 8.8 nM |  |  | 20.9 nM | 81% | 91% | 59% | 81% | Cc1cc(Cl)c2c(c1)c1c(n2CC(C)(O)c2ccncc2)CCN2CCCC12 (single isomer, unassigned) [91a] | 
4 | 95% | 99% | 100% | 0.75 nM |  |  | 6.7 nM |  |  | 3.7 nM | 72% | 83% | 89% | 96% | Cc1cc2c3c(n(CC(C)(O)c4ccncc4)c2cc1Cl)CCN1CCCC31 (single isomer, unassigned) [50a] | 
5 |  |  |  | 0.75 nM | 73% | 86% | 5.69 nM | 80% | 93% | 6.9 nM |  |  |  |  | Cc1cc2c3c(n(CC(C)(O)c4ccncc4)c2cc1Cl)CCN1CCCC31 (single isomer, unassigned) [50b] | Percentage inhibition of ligand binding, Adrenergic α2B (10 nM) ([1]; 10 nM compound, Protocol Group B, 0.01 µM): 98%; Percentage inhibition of ligand binding, Adrenergic α2B (30 nM) ([1]; 30 nM compound, Protocol Group B, 0.03 µM): 100%; Percentage inhibition of ligand binding, Adrenergic α2B (0.1 μM) [1, 6]: 100%
